Data reported in ChEMBL document CHEMBL2150866, “Irreversible 4-Aminopiperidine Transglutaminase 2 Inhibitors for Huntington's Disease” (ACS Med Chem Lett, 2012).

Tests used:
[1] = Half life in mouse plasma at 1 uM; assay type: ADME, cell-free
[2] = Half life in human plasma at 1 uM; assay type: ADME, cell-free
[3] = target: T1, Protein-glutamine gamma-glutamyltransferase (Homo sapiens, UniProt P21980); test: Inhibition of human TGM2
T1 sequence (P21980 whole entry): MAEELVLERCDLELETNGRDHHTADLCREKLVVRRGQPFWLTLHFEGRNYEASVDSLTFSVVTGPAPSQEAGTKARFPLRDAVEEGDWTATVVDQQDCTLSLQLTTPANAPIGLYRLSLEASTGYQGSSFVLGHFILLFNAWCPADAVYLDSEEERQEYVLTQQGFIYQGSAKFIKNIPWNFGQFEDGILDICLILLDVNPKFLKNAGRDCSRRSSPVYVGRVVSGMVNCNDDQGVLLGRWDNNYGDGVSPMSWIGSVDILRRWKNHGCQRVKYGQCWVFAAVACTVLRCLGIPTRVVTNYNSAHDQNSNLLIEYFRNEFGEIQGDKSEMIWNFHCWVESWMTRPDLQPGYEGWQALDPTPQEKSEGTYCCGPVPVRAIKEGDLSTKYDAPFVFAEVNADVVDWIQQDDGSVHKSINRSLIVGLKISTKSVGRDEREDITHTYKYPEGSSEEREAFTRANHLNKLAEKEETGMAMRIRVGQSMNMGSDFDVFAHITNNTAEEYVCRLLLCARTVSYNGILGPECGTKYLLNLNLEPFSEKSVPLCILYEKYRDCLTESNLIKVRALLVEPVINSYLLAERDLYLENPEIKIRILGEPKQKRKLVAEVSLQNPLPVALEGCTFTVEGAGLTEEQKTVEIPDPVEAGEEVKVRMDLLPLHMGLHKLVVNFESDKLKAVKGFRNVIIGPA

Row | SMILES | half-life at 1 µM [1] [h] | half-life at 1 µM [2] [h] | IC50 [3] [nM]
1 | C=CC(=O)N1CCN(S(=O)(=O)c2ccc(NC(=O)OCc3ccccc3)cc2)CC1 | > 6 | > 6 | –
2 | Nc1ccc(S(=O)(=O)N2CCN(C(=O)C3CC3)CC2)cc1 | > 24 | > 6 | > 80000
3 | C=CC(=O)NCC1CCN(S(=O)(=O)c2ccc(NC(=O)OCc3ccccc3)cc2)CC1 | > 6 | > 6 | 5100
4 | C=CC(=O)NCCN(C)S(=O)(=O)c1ccc(NC(=O)OCc2ccccc2)cc1 | > 6 | > 6 | 3300
5 | C=CC(=O)N[C@H]1CCCN(S(=O)(=O)c2ccc(NC(=O)OCc3ccccc3)cc2)C1 | > 6 | > 6 | > 80000
6 | C=CC(=O)N[C@@H]1CCCN(S(=O)(=O)c2ccc(NC(=O)OCc3ccccc3)cc2)C1 | > 6 | > 6 | > 80000
7 | C=CC(=O)N[C@H]1CCN(S(=O)(=O)c2ccc(NC(=O)OCc3ccccc3)cc2)C1 | > 6 | > 6 | 55000
8 | C=CC(=O)NC1CN(S(=O)(=O)c2ccc(NC(=O)OCc3ccccc3)cc2)C1 | > 6 | > 6 | 1600
9 | C=CC(=O)NC1CCN(S(=O)(=O)c2ccc(C(=O)N3CCc4ccccc4C3)cc2)CC1 | > 6 | > 6 | 620
10 | C=CC(=O)NC1CCN(S(=O)(=O)c2ccc(C(=O)NCCC3CCCCC3)cc2)CC1 | > 6 | > 6 | 140
11 | C=CC(=O)NC1CCN(S(=O)(=O)c2ccc(C(=O)NCCC34CC5CC(CC(C5)C3)C4)cc2)CC1 | > 6 | > 6 | 660
12 | C=CC(=O)NC1CCN(S(=O)(=O)c2ccc(C(=O)NCCC3CCOCC3)cc2)CC1 | > 6 | > 6 | 360
13 | C=CC(=O)NC1CCN(S(=O)(=O)c2ccc(C(=O)NCCN3CCOCC3)cc2)CC1 | > 6 | > 6 | 380

Further lines, results first:

Row | half-life at 1 µM [1] [h] | half-life at 1 µM [2] [h] | IC50 [3] [nM] | SMILES
14 | > 6 | > 6 | 30000 | C=CC(=O)N[C@@H]1CCN(S(=O)(=O)c2ccc(NC(=O)OCc3ccccc3)cc2)C1
15 | > 6 | > 6 | 200 | C=CC(=O)NC1CCN(S(=O)(=O)c2ccc(C(=O)NCc3ccccc3)cc2)CC1
16 | > 6 | > 6 | 770 | C=CC(=O)NC1CCN(S(=O)(=O)c2ccc(C(=O)NCCCc3ccccc3)cc2)CC1
17 | > 6 | > 6 | 460 | C=CC(=O)NC1CCN(S(=O)(=O)c2ccc(C(=O)N(C)CCc3ccccc3)cc2)CC1
18 | > 6 | > 6 | 630 | C=CC(=O)NC1CCN(S(=O)(=O)c2ccc(C(=O)N(C)Cc3ccccc3)cc2)CC1
19 | > 6 | > 6 | 170 | C=CC(=O)NC1CCN(S(=O)(=O)c2ccc(C(=O)NCc3cccc4ccccc34)cc2)CC1
20 | > 6 | > 6 | 320 | C=CC(=O)NC1CCN(S(=O)(=O)c2ccc(C(=O)NC3CCCc4ccccc43)cc2)CC1 (stereo unspecified)
21 | > 6 | > 6 | 200 | C=CC(=O)NC1CCN(S(=O)(=O)c2ccc(C(=O)NC3Cc4ccccc4C3)cc2)CC1
22 | > 6 | > 6 | 550 | C=CC(=O)NC1CCN(S(=O)(=O)c2ccc(C(=O)NCCc3ccc(C(F)(F)F)cc3)cc2)CC1
23 | > 6 | > 6 | 280 | C=CC(=O)NC1CCN(S(=O)(=O)c2ccc(C(=O)NCCc3ccc(Cl)cc3)cc2)CC1
24 | > 6 | > 6 | 22000 | C=CC(=O)NC1CCN(S(=O)(=O)c2ccc(C(=O)NCCc3ccc(C(C)(C)C)cc3)cc2)CC1
